The results in this text go back to ChEMBL document CHEMBL1201862, “PubChem BioAssay data set” (2004).

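All cell lines were grown in 96-well plates and treated with compound for 48 hours. GI50: concentration for 50% inhibition of growth.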 Calls of active or inactive are those of the source. No stated cut-off is given here; in the data, active = GI50 up to about 1.1 µM and inactive = higher.

Some test systems named below: NCI-H522; UACC-62; T47D; BT-549; ACHN; U-251; MOLT-4; CAKI-1; OVCAR-8; SK-MEL-2; RPMI-8226; MDA-N; SN12C; OVCAR-5; NCI-H226; PC-3; HT-29; SR; 786-0; SNB-75.
Common to all, as to test: NCI tumour cell line growth inhibition, 48 h

Regarding `O=C1C(Br)=C(Br)C(=O)c2ccc(=O)ccc21`, the GI50 in the test on NCI-H522 was 2.67 µM (inactive); with UACC-62 it was 19.5 µM (inactive); in the test with T47D, 24.4 µM (inactive); with BT-549 it was 24.2 µM (inactive); in the test on ACHN, 17.6 µM (inactive); in the test on U-251, 38.3 µM (inactive). Also, the GI50 in the test on MOLT-4 is 3.36 µM (inactive); in the test with CAKI-1 it was 28.3 µM (inactive); in the test on OVCAR-8, 22.3 µM (inactive); with SK-MEL-2, 48.9 µM (inactive); in the test on RPMI-8226, 20 µM (inactive); in the test with MDA-N, 22.6 µM (inactive). Further, the GI50 is 19.1 µM (inactive) in the test on SN12C; 50.5 µM (inactive) with OVCAR-5; > 53 µM (inactive) with NCI-H226; > 56.5 µM (inactive) in the test with PC-3; 30.8 µM (inactive) with HT-29; 26.1 µM (inactive) in the test on SR. For the same compound, the GI50 in the test on 786-0 was 18.3 µM (inactive); with SNB-75, 57.9 µM (inactive).

With `COc1ccc(/N=N/C(=O)NC(CC(C)C)C(N)=O)cc1` (stereo not given), the GI50 is > 100 µM (inactive) with NCI-H522; 6.92 µM (inactive) in the test on UACC-62; 12.2 µM (inactive) in the test with T47D; 47.1 µM (inactive) in the test with BT-549; > 31.1 µM (inactive) with ACHN; > 100 µM (inactive) with U-251. In addition, the GI50 was 7.74 µM (inactive) in the test with MOLT-4; > 31.6 µM (inactive) in the test with CAKI-1; 36.9 µM (inactive) in the test on OVCAR-8; > 100 µM (inactive) in the test on SK-MEL-2; 14.8 µM (inactive) in the test with RPMI-8226; 30.2 µM (inactive) in the test with MDA-N. Moreover, the GI50 is > 31.6 µM (inactive) in the test with SN12C; > 100 µM (inactive) with OVCAR-5; > 94.4 µM (inactive) in the test with NCI-H226; > 100 µM (inactive) with PC-3; > 100 µM (inactive) in the test with HT-29; 5.64 µM (inactive) in the test on SR. Moreover, the GI50 was > 31.6 µM (inactive) in the test on 786-0 and > 100 µM (inactive) in the test on SNB-75.

Take `N#C/C(N)=C(C#N)/N=C/Nc1ccc(N)cc1`: the GI50 with NCI-H522, in the test on UACC-62, with T47D, in the test with BT-549, in the test with ACHN and in the test with U-251 was > 100 µM (inactive) each time. For the same compound, the GI50 in the test with MOLT-4, with CAKI-1, in the test on OVCAR-8, in the test with SK-MEL-2, with RPMI-8226 and in the test with MDA-N was > 100 µM (inactive) in each case. For the same compound, the GI50 in the test on SN12C, in the test with OVCAR-5, in the test with NCI-H226, with PC-3, with HT-29 and in the test on SR was > 100 µM (inactive) each time. Also, the GI50 in the test with 786-0 and in the test on SNB-75 was > 100 µM (inactive) throughout.

In the case of `CCOC(=O)CC[C@H](NC(=O)[C@H](N)Cc1ccc(N(CCCl)CCCl)cc1)C(=O)OCC`, the GI50 in the test with NCI-H522 is 4.53 µM (inactive); with UACC-62, 2.68 µM (inactive); with T47D, 8.07 µM (inactive); in the test on BT-549, 26.2 µM (inactive); in the test on ACHN it was 4.76 µM (inactive); with U-251, 16.8 µM (inactive). For the same compound, the GI50 is 0.386 µM (active) in the test on MOLT-4; 4.65 µM (inactive) in the test with CAKI-1; 10.6 µM (inactive) in the test with OVCAR-8; 29.4 µM (inactive) with SK-MEL-2; 19.6 µM (inactive) in the test on RPMI-8226; 23.2 µM (inactive) in the test with MDA-N. Besides, the GI50 in the test with SN12C is 14.2 µM (inactive); in the test with OVCAR-5 it was 26.4 µM (inactive); in the test on NCI-H226, > 34.7 µM (inactive); in the test on PC-3, 20.8 µM (inactive); in the test on HT-29 it was 36.1 µM (inactive); in the test on SR it was 1.91 µM (inactive). Also, the GI50 is 9.55 µM (inactive) in the test with 786-0 and 12 µM (inactive) in the test on SNB-75.

Turning to `N#CCCN(CCCCN(CCC#N)C(=O)Nc1ccccc1)C(=O)Nc1ccccc1`, the GI50 in the test with NCI-H522, with UACC-62, in the test with T47D, with BT-549, with ACHN and with U-251 was > 100 µM (inactive) throughout. In addition, the GI50 in the test with MOLT-4, in the test with CAKI-1, in the test with OVCAR-8, in the test on SK-MEL-2, with RPMI-8226 and with MDA-N was > 100 µM (inactive) in each case. Further, the GI50 in the test with SN12C, in the test on OVCAR-5, in the test with NCI-H226, in the test on PC-3, with HT-29 and with SR was > 100 µM (inactive) each time. Also, the results for the GI50 with 786-0 and in the test on SNB-75 were > 100 µM (inactive) and 15.5 µM (inactive), respectively.

For the compound `Cc1ccc2ccc(=O)oc2c1`, the GI50 is > 100 µM (inactive) in the test on NCI-H522; 74.5 µM (inactive) in the test on UACC-62; 94.6 µM (inactive) in the test on T47D; > 100 µM (inactive) in the test with BT-549; > 100 µM (inactive) in the test with ACHN; > 100 µM (inactive) in the test with U-251. The GI50 in the test on MOLT-4, in the test with CAKI-1, with OVCAR-8, in the test with SK-MEL-2, in the test with RPMI-8226 and in the test with MDA-N was > 100 µM (inactive) in each case. Besides, the GI50 in the test with SN12C, in the test on OVCAR-5, in the test with NCI-H226, in the test on PC-3, with HT-29 and in the test on SR was > 100 µM (inactive) throughout. Moreover, the GI50 in the test with 786-0 and with SNB-75 was > 100 µM (inactive) each time.
